Assay results published in patent publication US12043602B2, “Fendiline derivatives” (The Board of Regents of the University of Texas System, priority 2019, dated 2024).
pEC50: −log10 of the molar value. Like-named read-outs stand apart in the source and are kept apart here.

Columns and labels:
[1] = test system: MiaPaCa-2 tumors; experiment: In vivo tumor growth assay (xenograft); design: species or system nu/nu mice; conditions: MiaPaCa2 xenografts in nude mice
Method: In Vivo Tumor Growth Assay. All animal studies were performed under an Institutional Animal Care and Use Committee (IACUC) approved animal protocol (AWC-15-0101), in accordance with the National Institutes of Health Guide for the Care and Use of Laboratory Animals. Early passage MiaPaCa-2 cells were harvested, and 2×10^6 cells were implanted into the right flanks of female nu/nu mice. The animals were randomized into control and treated groups (10 mice per group). Tumor volume (V) was measured with an external caliper every 3-4 days and it was calculated as V=0.52 (length×width2). Compound treatment was initiated when the tumor sizes reached 100 mm3. Compounds (12.5 mg/kg) were injected daily intraperitoneally for 5 days, with 2 days of no treatment in between. All treatments were continued until any of the subcutaneous tumors reached 1500 mm3 in volume, when all the animals were sacrificed, and the tumors removed.
Early passage BxPC-3 or MIAPaCa-2 cells were harvested, and 2-3X106 cells were implanted into the right flanks of nu/nu mice. The animals were randomized into control and treated groups (10 mice per group). Tumor volume (V) was measured with an external caliper every 3-4 days and it was calculated as V=0.52 (length×width2). Drug treatment was initiated 4 days after tumor implantation. Drugs were injected daily intraperitoneally (at doses indicated) for 5 days, with 2 days of no treatment in between. All treatments were continued until any of the subcutaneous tumors reached 1500 mm3 in volume or for 6 weeks (whichever was first), when all the animals were sacrificed and the tumors removed.
Next the effect of the selected PMLIs on the growth of oncogenic KRAS expressing MiaPaCa-2 cells implanted subcutaneously into the flanks of nu/nu immunosuppressed mice was determined. […] The animals were randomized into control and PMLI-treated groups (10 mice per group). Treatment was initiated when the tumors reached a mean volume of 100 mm^3. PMLIs were tested at 12.5, 7.5, 5, 2.5 and 1 mg/kg doses, administered once daily intraperitoneally for 5 days, with 2 days of no treatment in between for the duration of the experiment. […] There was no observed toxicity detected in any of the compound-treated groups during the experiment and, accordingly, there was no significant difference in the body weight of the animals in the different groups.

[2] = test system: MDCK cells co-expressing GFP-K-RASG12V and mCherry-CAAX; experiment: Cytotoxicity in mislocalization screen (death of all cells in well); conditions: drug caused death of all cells in well at 30 μM
[3] = target: T1, mGFP-K-RASG12V (Homo sapiens (Human), UniProt P01116, G12V); experiment: K-Ras mislocalization assay (confocal microscopy, Manders coefficient); type: cell-based; design: key to Emax: Manders coefficient: fraction of mCherry-CAAX co-localizing with GFP-K-Ras; conditions: MDCK cells; for pEC50: batch 4 compounds, title calls it IC50, read-out: EC50; for pEC50 / Emax: 48 h; for Emax: maximal effect, Manders coefficient; for IC50: 48 h treatment, read-out: IC50 (μM), KRASG12V mislocalization
Summary of the method: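 MDCK cells stably co-expressing mGFP-K-RASG12V and mCherry-CAAX (endomembrane marker) treated with compound or 0.1% DMSO for 48 h, fixed in 4% paraformaldehyde, imaged by confocal microscopy. Mislocalization quantified as the fraction of mCherry-CAAX co-localizing with mGFP-K-RASG12V (Manders coefficient) after 8-bit thresholding.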

[4] = target: T1, mGFP-K-RASG12V; conditions: versus compound 6; background statement; cited from earlier work
[5] = test system: mutant KRAS expressing cancer cells; conditions: at 30 μM; background statement; cited from earlier work
[6] = test system: BxPC-3 (WT) pancreatic tumor cells; experiment: CyQUANT proliferation assay; type: cell-based; design: key to IC50 proliferation BxPC-3 (WT): NE—Not efficacious
Method: (§1) Madine Darby Canine Kidney epithelial cells (MDCK) stably co-expressing mGFP-tagged full length oncogenic mutant K-Ras (GFP—K-RASG12V) or mGFP-LactC2 (peptide probe for phosphatidylserine) and mCherry-tagged to the amino acids 179-189 of H-RasC181S, C184S (mCherry-CAAX, localizes primarily to endomembranes) were grown in DMEM-high glucose/sodium pyruvate/10% FBS. The medium was supplemented with 1× Penicillin/Streptomycin for fluorescence microscopy assays, to avoid any microbial contamination from the test compounds added. KLE and Hec50 cells were maintained in DMEM-F-12 medium supplemented with 10% FBS. Hec-1A and Hec-1B cells were grown in McCoy's 5a medium supplemented with 10% FBS. ESS-1 cells were grown in RPMI 1640 medium supplemented with 20% FBS. MPanc96 cells were grown in DMEM supplemented with 10% FBS, MiaPaCa-2 cells in DMEM supplemented with 10% FBS and 2.5% horse serum and all other cell lines were grown in RPMI 1640 supplemented with 10% FBS. All cancer cell media were supplemented with ×Penicillin/Streptomycin. All cell lines were grown at 37° C. with 5% CO2.
(§2) Cells were seeded in 96-well plates. After 24 h, fresh growth medium supplemented with 0.1% vehicle (DMSO), or various concentrations of drugs was added and cells were grown for 72 h. Cell numbers were quantified using the CyQUANT® Cell Proliferation Assay Kit (Molecular Probes, Life Technologies), according to the manufacturer's protocol. Fluorescence measurement was used as a measure of live cell number.

[7] = test system: MiaPaCa-2 (Mut) pancreatic tumor cells; experiment: CyQUANT proliferation assay; type: cell-based; design: key to IC50 proliferation MiaPaCa-2 (Mut): NE—Not efficacious
Method: as §1, §2

[8] = test system: NCI-H23 (Mut) lung tumor cells; experiment: CyQUANT proliferation assay; type: cell-based; conditions: Table 11, lung; read-out: IC50 (μM) NCI H23 (Mut)
Method: as §1, §2

[9] = test system: Hec1A (Mut) endometrial tumor cells; experiment: CyQUANT proliferation assay; type: cell-based; conditions: Table 11, endometrial; read-out: IC50 (μM) Hec1A (Mut)
Method: as §1, §2

[10] = test system: SK-CO-1 (Mut) colon tumor cells; experiment: CyQUANT proliferation assay; type: cell-based; conditions: Table 11, colon; read-out: IC50 (μM) SK-CO-1 (Mut)
Method: as §1, §2

[11] = test system: CaCO-2 (WT) colon tumor cells; experiment: CyQUANT proliferation assay; type: cell-based; conditions: Table 11, colon; read-out: IC50 (μM) Caco-2 (WT)
Method: as §1, §2

[12] = test system: Hec1B (Mut) endometrial tumor cells; experiment: CyQUANT proliferation assay; type: cell-based; conditions: Table 11, endometrial; read-out: IC50 (μM) Hec1B (Mut)
Method: as §1, §2

[13] = test system: NCI-H1299 (WT) lung tumor cells; experiment: CyQUANT proliferation assay; type: cell-based; conditions: Table 11, lung; read-out: IC50 (μM) NCI H1299 (WT)
Method: as §1, §2

[14] = test system: MPanc96 (Mut) pancreatic tumor cells; experiment: CyQUANT proliferation assay; type: cell-based; design: key to IC50 proliferation MPanc96 (Mut): NE—Not efficacious
Method: as §1, §2

[15] = test system: MOH (Mut) pancreatic tumor cells; experiment: CyQUANT proliferation assay; type: cell-based; design: key to IC50 proliferation MOH (Mut): NE—Not efficacious
Method: as §1, §2

[16] = test system: Ishikawa (WT) endometrial tumor cells; experiment: CyQUANT proliferation assay; type: cell-based; design: key to IC50 proliferation Ishikawa (WT): NE—Not efficacious; conditions: for IC50 proliferation Ishikawa (WT): 72 h
Method: as §1, §2

[17] = test system: NCI H522 (WT) lung tumor cells; experiment: CyQUANT proliferation assay; type: cell-based; design: key to IC50 proliferation NCI H522 (WT): NE—Not efficacious
Method: as §1, §2

[18] = test system: NCI H1975 (WT) lung tumor cells; experiment: CyQUANT proliferation assay; type: cell-based; design: key to IC50 proliferation NCI H1975 (WT): NE—Not efficacious
Method: as §1, §2

[19] = target: NRAS (Homo sapiens (Human), UniProt P01111); conditions: background statement; cited from earlier work
[20] = target: HRAS (Homo sapiens (Human), UniProt P01112); conditions: background statement; cited from earlier work
[21] = test system: MDCK cells co-expressing GFP-K-RASG12V and mCherry-CAAX
[22] = test system: ESS-1 (WT) endometrial tumor cells; experiment: CyQUANT proliferation assay; type: cell-based; design: key: NE—Not efficacious; conditions: 72 h
Method: as §1, §2

[23] = test system: KLE (WT) endometrial tumor cells; experiment: CyQUANT proliferation assay; type: cell-based; design: key: NE—Not efficacious; conditions: 72 h
Method: as §1, §2

SMILES: C[C@H](c1ccc(F)cc1)N(CC=C(c1ccccc1)c1ccccc1)CCN1CCCC1 [NY0506, (R)-N-(1-(4-fluorophenyl)ethyl)-3,3-diphenyl-N-(2-(pyrrolidin-1-yl)ethyl)prop-2-en-1-amine]
- minimum effective dose on tumor growth relative to fendiline [1]: more potent than fendiline
- Cytotoxic at 30 μM [2]: Yes
- pEC50 [3]: 6.28
- Emax [3]: 0.808

SMILES: COc1ccc([C@@H](C)N(CC=C(c2ccccc2)c2ccccc2)CC=C(c2ccccc2)c2ccccc2)cc1 [Compound 7, reference compound]
- fold increased potency [4]: 10 fold
- capability to kill mutant KRAS expressing cancer cells [5]: no capability to kill
- IC50 ([6]; Table 11, pancreatic, read-out: IC50 (μM) BxPC-3 (WT)): > 30 µM
- IC50 ([7]; Table 11, pancreatic, read-out: IC50 (μM) MiaPaCa-2 (Mut)): > 30 µM
- IC50 [8]: > 30 µM
- IC50 [9]: > 30 µM
- IC50 [10]: > 30 µM
- IC50 [11]: > 30 µM
- IC50 [12]: > 30 µM
- IC50 [13]: > 30 µM
- IC50 ([14]; Table 11, pancreatic, read-out: IC50 (μM) MPanc96 (Mut)): > 30 µM
- IC50 ([15]; Table 11, pancreatic, read-out: IC50 (μM) MOH (Mut)): > 30 µM
- Cytotoxic at 30 μM [2]: did not show any cytotoxic and No
- IC50 ([16]; Table 11, endometrial, read-out: IC50 (μM) Ishikawa (WT)): > 30 µM
- IC50 [3]: 0.5 µM
- Emax [3]: 0.74 ± 0.03
- IC50 ([17]; Table 11, lung, read-out: IC50 (μM) NCI H522 (WT)): > 30 µM
- IC50 ([18]; Table 11, lung): > 30 µM

SMILES: C[C@@H](NCCC(c1ccccc1)c1ccccc1)c1ccccc1 [AVA08, R-Fendiline, reference compound]
- effect on the PM localization of NRAS [19]: no effect
- effect on the PM localization of HRAS [20]: no effect
- IC50 [3]: 5.59 µM
- Emax [3]: 0.811
- Cytotoxic at 30 μM [21]: Yes

SMILES: C(CN(CCN1CCCC1)C1(c2ccccc2)CC1)=C(c1ccccc1)c1ccccc1 [NY0444, N-(3,3-diphenylallyl)-1-phenyl-N-(2-(pyrrolidin-1-yl)ethyl)cyclopropanamine]
- IC50 proliferation ESS-1 (WT) [22]: NE
- Cytotoxic at 30 μM [2]: Yes
- IC50 proliferation Ishikawa (WT) [16]: NE
- IC50 [3]: 0.73 µM
- Emax [3]: 0.732

SMILES: CN1CCN(CCN(CC=C(c2ccccc2)c2ccccc2)C2(c3ccccc3)CC2)CC1 [NY0443, N-(3,3-diphenylallyl)-N-(2-(4-methylpiperazin-1-yl)ethyl)-1-phenylcyclopropanamine]
- IC50 proliferation ESS-1 (WT) [22]: NE
- Cytotoxic at 30 μM [2]: Yes
- IC50 proliferation Ishikawa (WT) [16]: NE
- IC50 [3]: 0.91 µM
- IC50 proliferation NCI H522 (WT) ([17]; 72 h): NE
- IC50 proliferation NCI H1975 (WT) ([18]; 72 h): NE

SMILES: COc1ccc(-c2cc(C(=O)N(CCN3CCCC3)[C@H](C)c3ccc(F)cc3)no2)cc1 [PW323, (R)-N-(1-(4-Fluorophenyl)ethyl)-5-(4-methoxyphenyl)-N-(2-(pyrrolidin-1-yl)ethyl)isoxazole-3-carboxamide]
- minimum effective dose on tumor growth relative to fendiline [1]: more potent than fendiline
- Cytotoxic at 30 μM [2]: Yes
- IC50 [3]: 0.05 µM
- Emax [3]: 0.852

SMILES: COc1ccc([C@@H](C)N(CC=C(c2ccccc2)c2ccccc2)CCN2CC2)cc1 [NY0438, (R)-N-(2-(aziridin-1-yl)ethyl)-N-(1-(4-methoxyphenyl)ethyl)-3,3-diphenylprop-2-en-1-amine]
- IC50 [3]: 5.1 µM
- Emax [3]: 0.754
- Cytotoxic at 30 μM [21]: No

SMILES: C[C@H](c1ccccc1)N(CC=C(c1ccccc1)c1ccccc1)CCN1CCN(C)CC1 [NY0513, (R)-N-(2-(4-methylpiperazin-1-yl)ethyl)-3,3-diphenyl-N-(1-phenylethyl)prop-2-en-1-amine]
- IC50 proliferation KLE (WT) [23]: NE
- Cytotoxic at 30 μM [2]: Yes
- IC50 [3]: 0.6 µM
- pEC50 [3]: 6.19
- Emax [3]: 0.786
- Emax ([3]; listed as 15d): 0.79 ± 0.01

SMILES: C(CNC1(c2ccccc2)CC1)=C(c1ccccc1)c1ccccc1 [NY040402, N-(3,3-diphenylallyl)-1-phenylcyclopropanamine]
- IC50 proliferation BxPC-3 (WT) ([6]; 72 h): NE
- IC50 proliferation MiaPaCa-2 (Mut) ([7]; 72 h): NE
- IC50 proliferation MPanc96 (Mut) ([14]; 72 h): NE
- IC50 proliferation MOH (Mut) ([15]; 72 h): NE
- Cytotoxic at 30 μM [2]: No
- IC50 [3]: 0.2 µM
- Emax [3]: 0.835
